The subject of one data set is CTLA-4 on Treg. Briefly: FACS analysis of CTLA-4 expression. The data set is classed as cell-based, mouse. The following applies: Treg activated 24 h, 2 h with compound, stained 24 h later. Here is the method: (vii) FACS analysis of CTLA-4-expressing CD4^+ T cells. Cells were immunostained according to the manufacturer's instructions, resuspended in 0.4 mL of 1% paraformaldehyde, and analyzed by FACSort (Becton-Dickinson), with 10,000 events scored. […] The cells were scored from a region defined according to physical parameters that indicate the size (forward scatter) and granularity (side scatter) of lymphocytes. CD4^+ lymphocytes were then gated for analysis of CTLA-4 expression.
To gain further insight into the mechanism whereby dopamine affects Treg activity we examined CTLA-4, a molecule characteristic of Treg (Im et al., 2001).
In general terms: In flow cytometry, cells or beads pass a laser one at a time.

Data set [1] relates to TGF-β1 transcripts in Treg. The following applies: after dopamine treatment. An excerpt: (§1) (xx) Polymerase chain reaction (PCR). Total RNA was purified with the RNeasy Mini Kit (Qiagen, Germantown, Md.) and transcribed into cDNA using poly dT primers. For PCR the following primers were used: […]
Because the suppressive effect of Treg on Teff is partly due to transforming growth factor (TGF)-β1 (Nakamura et al., 2001), we measured whether exposure of Treg to dopamine affects the level of TGF-β1 expression.

Data set [2] has as its system BALB/c mice, optic nerve crush injury. The following applies: 0.4 mg/kg immediately after severe optic nerve crush, two weeks later; vehicle 789±23. An excerpt: (iv) Retrograde labeling of retinal ganglion cells. Mice were anesthetized and placed in a stereotactic device. The skull was exposed and kept dry and clean. The bregma was identified and marked. The designated point of injection was at a depth of 2 mm from the brain surface, 2.92 mm behind the bregma in the anteroposterior axis and 0.5 mm lateral to the midline. A window was drilled in the scalp above the designated coordinates in the right and left hemispheres. The neurotracer dye FluoroGold (5% solution in saline; Fluorochrome, Denver, Colo.) was applied (1 μL, at a rate of 0.5 μL/min in each hemisphere) using a Hamilton syringe, and the skin over the wound was sutured.
(xxi) Assessment of mouse retinal ganglion cell survival. Mice were given a lethal dose of pentobarbitone (170 mg/kg). Their eyes were enucleated and the retinas were detached and prepared as flattened whole mounts in 4% paraformaldehyde solution. Labeled cells from 4-6 selected fields of identical size (0.7 mm^2) were counted. The selected fields were located at approximately the same distance from the optic disk (0.3 mm) to overcome the variation in RGC density as a function of distance from the optic disk. Fields were counted under the fluorescence microscope (magnification ×800) by observers blinded to the identity of the retinas. The average number of RGCs per field in each retina was calculated.

A further data set has as its system CCR-4 mRNA in Treg. The following applies: 2 h with dopamine.
From the text: as §1

A further data set has as its system Foxp3 expression in Treg. The following applies: 2 h exposure, analysed after 30 min or 24 h.
From the text: as §1

The subject of another data set is IL-10 production by Treg. The following applies: 10^−5 M; 24 h, 48 h and 72 h. Here is the method:
(x) Enzyme-linked immunosorbent assay. Treg or Teff (0.5×10^6 cells/ml) were cultured for 48 h in the presence of anti-CD3 and anti-CD28. After 48 h the cells were centrifuged and their supernatants were collected and sampled. Concentrations of IL-2 in the samples were determined by the use of sandwich enzyme-linked immunosorbent assay (ELISA) kits (R&D Systems, Minneapolis, Minn.). For detection of secreted IL-10 cells were centrifuged every 24 h and replaced with a fresh medium. Supernatants obtained from cells after 24, 48 and 72 h in culture were subjected to ELISA kit (Diaclone Research, Fleming, France). The plates were developed using a 3,3′,5,5′-tetramethyl-benzidine liquid substrate system (Sigma, St. Louis, Mo.). The reaction was stopped by adding 1M H3PO4. Results for each experiment were calculated as the amount of secreted cytokine per 1 ml of sample, after subtraction of the background levels of the medium.

Data set [3] concerns phospho-ERK1/2 in Treg and Teff. Briefly: ERK1/2 phosphorylation (intracellular FACS staining, Western blot). The data set is classed as cell-based, mouse. Background: Immunoblotting shows a protein as a band on a membrane.
Description: (ix) FACS analysis of intracellular labeling of phosphorylated form of ERK. T-cell subpopulations were fixed in 1.5% formaldehyde for 10 min at room temperature, washed, resuspended with vortexing in cold 100% methanol, and incubated for 1 h at 4° C. The cells were then washed with PBS containing 1% bovine serum albumin (BSA) and resuspended in 100 μL of PBS/BSA, and 12.5 μL of anti-phosphoERK1 & 2 (BioSource) was added for 20 min at room temperature. The cells were then washed, resuspended in PBS, and analyzed by FACSCalibur (Becton-Dickinson). As a negative control we incubated the phospho-peptide for 20 min with its antibody and then added the mixture to T cells.
(xix) Western blotting. Cells were stimulated for 20 min with anti-CD3 and anti-CD28 antibodies in the presence or absence of dopamine or SKF-38393. Cell lysates were prepared using RIPA lysis buffer (50 mM Tris, pH 8; 0.1% SDS; 0.5% deoxycholate; 1% NP40; 500 mM NaCl; 10 mM MgCl2) and were then kept on ice for 10 min before being vortexed and centrifuged. Supernatants were collected and 5× sample buffer (containing 25 mM Tris pH 6.8, 2% sodium dodecyl sulfate (SDS), 10% glycerol, 0.1% bromophenol blue, 0.5 M β-mercaptoethanol) was added prior to boiling. Cell extracts were separated by SDS-PAGE (10% polyacrylamide), and blotted onto nitrocellulose. Activated ERK1/2 was detected by probing blots with a 1:30,000 dilution of monoclonal antibody. Total ERK protein was detected by using a 1:10,000 dilution of a polyclonal rabbit antibody. The blots were developed by horseradish peroxidase-conjugated anti-mouse or anti-rabbit Fab and ECL (Amersham). Signals were quantified using NIH Image 1.62.
Treg were activated for 20 min in the presence or absence of dopamine (10^−5 M), and were then subjected to intracellular phosphoprotein staining (Perez and Nolan 2002) and analyzed by flow cytometry. […] As a measure of the background nonspecific staining of the phosphorylated ERK we used a specific peptide of phospho-ERK, which competes for binding of the antibody. The intracellular staining procedure for phospho-ERK detection by FACS was validated by the use of Teff incubated with 20 μM phorbol 12-myristate 13-acetate (PMA), known to stimulate the activity of protein kinase C (PKC) (data not shown).
The subject of data set [4] is adhesion of Treg and Teff to fibronectin. Here is the method:
(§2) One of the main features of T cells is their ability to migrate to tissues in need of rescue or repair [such as diseased or damaged CNS (Hickey, 1999; Flugel et al., 2001). […] We therefore incubated Treg with dopamine for 2 h and then examined their adhesion to chondroitin sulfate proteoglycans (CSPG), extracellular matrix proteins often associated with injured tissues (Jones et al., 2003).

Another data set deals with Treg. As to the kind of experiment: Treg apoptosis (propidium iodide sub-G1, annexin V, FACS). In kind it is cell-based, mouse. Here is the method:
(viii) FACS analysis of annexin V-positive regulatory T cells. PE-stained CD25^+ cells were stained for annexin V-FITC according to the manufacturer's instructions. The cells were scored as described above, and CD25^+ lymphocytes were then gated for analysis of annexin V-positive cells.
(xv) Propidium iodide staining. Cells were fixed in cold ethanol 80% and treated with RNAse. Propidium iodide was then applied, and cell samples were assessed by FACSort.

Data set [5] has as its system adhesion of Treg and Teff to chondroitin sulfate proteoglycans (CSPG). Briefly: T cell adhesion to CSPG. In kind it is cell-based, mouse. Here is the method: (xiii) T cell adhesion. Adhesion of activated CD4^+CD25^+ and CD4^+CD25^− T cells to CSPG was analyzed as previously described (23). Briefly, flat-bottomed microtiter (96-well) plates were pre-coated with CSPG (1 μg/well, 40 min, 37° C.). ^51Cr-labeled T cells were left untreated or were pre-incubated (30 min, 37° C.) with dopamine or the specified agonist or antagonist (10^−5M). The cells (10^5 cells in 100 μL of RPMI containing 0.1% BSA) were then added to the CSPG-coated wells, incubated (30 min, 37° C.), and washed. Adherent cells were lysed and the resulting supernatants were removed and counted in a γ-counter. Results were expressed as the mean percentage of the total population before adhesion of bound T cells from quadruplicate wells for each experimental group.
as §2
To verify that the effect of dopamine on adhesion of Treg is exerted through the ERK1/2 pathway, we incubated Treg with the ERK1/2 signaling pathway inhibitor PD98059 before carrying out the adhesion assay. […] Since interaction of T cells with CSPG is mediated in part by the CD44 receptor (Henke et al., 1996), and in light of the known dependence of CD44 expression on the ERK signaling pathway, it was conceivable that dopamine might affect the expression of CD44 in Treg.

Here are results for one compound from patent US20100168085A1, “Dopamine and agonists and antagonists thereof for modulation of suppressive activity of CD4+CD25+ regulatory T cells” (YESA RESEARCH AND DEVELOPMENT CO. LTD. at the Weizmann …, priority 2003, published 2010).

With `NCCc1ccc(O)c(O)c1` [dopamine, 3,4-dihydroxyphenethylamine], the “CTLA-4 expression on Treg” value in the data set on CTLA-4 on Treg is “slightly but consistently decreased”. For the same compound, the “Transcripts encoding TGF-β1 in Treg” value in data set [1] was “decreased”. In data set [2], the “Viable neurons in retina (mean±SD)” value is 1110±56 /mm^2. For the same compound, the “Expression of CCR-4 in Treg” value in the data set with CCR-4 mRNA in Treg is recorded as “decreased”. Also, the “Foxp3 expression in Treg” value with Foxp3 expression in Treg is “no significant change”. The “Amount of IL-10 in media of Treg” value with IL-10 production by Treg was “significant decrease”. Further, the “Phosphorylated ERK in activated Treg, flow cytometry” value in [3] (10^−5 M, activation 20 min) was “Significantly less phosphorylated ERK”. Further, the “Phospho-ERK1/2 levels in Teff, Western blot” value in [3] (activation 20 min) is listed as “did not cause a significant change”. Also, the “Phospho-ERK1/2 in activated Treg, Western blot” value in data set [3] (activation with anti-CD3 and anti-CD28 for 20 min) is on record as “down-regulated”. In [4], the “Adhesion of Teff to fibronectin” value was “slight increase” and the “Adhesion of Treg to fibronectin” value was “no effect”. Also, the “Apoptosis, annexin V staining for phosphatidylserine” value in the data set with Treg (Treg incubated with compound) is listed as “could not detect any signs of apoptosis”. Also, in the data set on Treg (Treg incubated with dopamine), the “Apoptotic cells (sub-G1), propidium iodide staining” value is “No signs of apoptosis”. In data set [5], the “Adhesion of Teff to CSPG” value is “slight, nonsignificant effect”. Moreover, in [5] (dopamine 10^−9-10^−5 M, concentration-dependent, agonist 10^−5 M), the “Adhesion of Treg to CSPG” value was “significantly decreased”.
